Results on five compounds are retold here after BindingDB's records for doi:10.7270/Q25M67W6 (n/a, 1992).

Assay [1] concerns the target Prothrombin (Homo sapiens, UniProt P00734). As to the kind of experiment: Rate constant of deacylation for thrombin.
In assay [2] the target is Urokinase-type plasminogen activator (Homo sapiens, UniProt P00749). The experiment in a line: Rate constant of deacylation for Urokinase-type plasminogen activator.
Assay [3] deals with Serine protease 1 (Homo sapiens, UniProt P07477). The experiment in a line: Rate constant of deacylation for trypsin.
Sequence of Serine protease 1 (P07477 whole entry): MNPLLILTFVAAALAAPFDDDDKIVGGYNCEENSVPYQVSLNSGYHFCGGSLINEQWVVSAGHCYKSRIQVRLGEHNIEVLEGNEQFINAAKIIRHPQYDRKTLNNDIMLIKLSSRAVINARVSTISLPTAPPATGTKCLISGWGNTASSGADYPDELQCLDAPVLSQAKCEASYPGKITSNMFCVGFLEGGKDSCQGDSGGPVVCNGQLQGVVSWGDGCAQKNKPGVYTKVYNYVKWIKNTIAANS

As for `C=C1CCC(c2ccc(CNC(=N)N)cc2)C(=O)O1` (stereo not drawn), the off-rate (koff) (usually the rate constant with which the complex falls apart) was found to be 0.0001 s⁻¹ in assay [1] and 0.000733 s⁻¹ in assay [2].

As for `C=C1CC(c2ccc(NC(=N)N)cc2)CC(=C)O1`, the off-rate constant (koff) in assay [2] was 0.00015 s⁻¹; in assay [3], 3.3e-05 s⁻¹.

As for `C=C1O/C(=C/I)C[C@H](c2ccc(NC(=N)N)cc2)[C@H]1NC(=O)c1ccccc1`, the dissociation rate constant (koff) in assay [2] was determined as 1.3e-05 s⁻¹; in assay [3], 8.3e-05 s⁻¹.

Compound `C=C1CC(c2ccc(NC(=N)N)cc2)C/C(=C\I)O1` (stereo not drawn) returned a koff in assay [3] of 0.000333 s⁻¹.

`N=C(N)NCc1ccc(C2CC/C(=C\I)OC2=O)cc1` (stereo not drawn) showed an off-rate constant (koff) in assay [1] of 0.000217 s⁻¹.
